Patent US5187277A, “DL-3-[4-[4-(2-pyridyl)-1-piperazinyl]-butyl]-1,8,8-trimethyl-3-az abicyclo[(3]octane-2,4-dione having psychotropic and antiemetic effect” (priority 1990, dated 1993)
Where a name gives a salt, the structure may show the parent alone. Read-outs that look alike come from different tables or passages of the source.

Experiments:
pigeons [1] = assay: antiemetic activity, vomiting caused by apomorphine in pigeons; format: in vivo; conditions: for ED50: Columbidae, ip, read-out: Antiemetic activity, ED50
Description: (§1) The compounds were introduced intraperitoneally and orally 20-60 minutes before the beginning of the test. The minimum effective doses (MED) increasing the number of water takings and increasing the period of staying in an illuminated area by at least 50%, were determined. The neuroleptic activity was detected and measured using the "rat fight" method and the "climbing" test of mice (P. Protais et al. Psychopharmacology, 50, p. 1, 1976). […] The antiemetic effect on vomiting caused by apomorphine or cisplatin was studied in pigeons (P. Presiosi et al., Arch. Int. Pharmacodyn., 298, p. 301, 1989) and mongrel dogs having a weight of 6-8 kg.

mongrel dogs [2] = assay: antiemetic activity, vomiting caused by cisplatin in dogs; format: in vivo; conditions: Canis lupus familiaris; dog tests
Description: as §1

[3] = cataleptogenic (extrapyramidic) activity; conditions: in vivo
[4] = sedative activity, suppression of motor activity (spontaneous locomotion); format: in vivo; conditions: for ED50: ip, read-out: Sedative activity ED50, suppression of motor activity
rats (conflict tests) = assay: anxiolytic activity in conflict situation model; format: in vivo; conditions: for minimal effective dose: Rattus norvegicus, read-out: Anxiolytic activity MED in conflict tests
Description: as §1

in vivo = conditions: ip
rat = assay: antiaggressive activity ("rat fight" method); format: in vivo; conditions: for ED50: Rattus norvegicus, read-out: Antiaggressive activity ED50
Description: as §1

mice = assay: antiapomorphine activity in "climbing" test of mice; format: in vivo; conditions: for ED50: Mus musculus, ip, read-out: Antiapomorphine activity in "climbing" test ED50
Description: as §1

pigeons [5] = assay: antiemetic activity, vomiting caused by cisplatin in pigeons; format: in vivo; conditions: Columbidae, ip, read-out: Antiemetic activity, ED50
Description: as §1

mongrel dogs [6] = assay: antiemetic activity, vomiting caused by apomorphine in dogs; format: in vivo; conditions: Canis lupus familiaris; dog tests
Description: as §1

[7] = from Table 2
[8] = sedative activity, suppression of orientation behaviour; format: in vivo; conditions: ip, read-out: Sedative activity ED50, suppression of orientation behaviour
[9] = myorelaxation activity, rotating rod test; format: in vivo; conditions: for ED50: ip, read-out: Myorelaxation activity ED50
[10] = hexobarbital-potentiation effect (narcosepotentiation, nonnarcotic dose of hexobarbital); format: in vivo; conditions: for ED50: read-out: Hexobarbital-potentiation effect ED50
[11] = test system: rats (avoiding illuminated area tests); assay: anxiolytic activity by the method of avoiding illuminated areas; format: in vivo; conditions: for minimal effective dose: Rattus norvegicus, read-out: Anxiolytic activity MED in "avoiding illuminated area" tests
Description: as §1

[12] = effect characteristic of tranquilizers and neuroleptics (anxiolytic, antiaggressive, antiapomorphine and hexobarbital-potentiation effects); format: in vivo; conditions: systematic application of dihydrochloride
Description: as §1

[13] = pigeons, vomiting caused by apomorphine, i/p
[14] = ip, rats, i/p, minimum effective dose increasing number of water takings by at least 50%, dihydrochlorides of I, VI, VII
[15] = po, rats, orally, minimum effective dose increasing number of water takings by at least 50%, dihydrochlorides of I, VI, VII
[16] = pigeons, vomiting caused by cisplatin, i/p
[17] = ip, rats, i/p, minimum effective dose increasing period of staying in illuminated area by at least 50%
[18] = po, rats, orally, minimum effective dose increasing period of staying in illuminated area by at least 50%

CC12CCC(C(=O)N(CCCCN3CCN(c4ccccn4)CC3)C1=O)C2(C)C (racemic) [Compound I, DL-3-[4-[4-(2-pyridyl)-1-piperazinyl]-butyl]-1,8,8-trimethyl-3-azabicyclo[3,2,1]octane-2,4-dione dihydrochloride]
ED50 (pigeons [1]; [13]): 0.11 ± 0.02 mg/kg | antiemetic effect relative to all comparable compounds (haloperidol, triphthazine, metoclopramide) (pigeons [1]; fold, versus haloperidol, triphthazine, metoclopramide, emetogen not specified (apomorphine or cisplatin)): 10-100 times | antiemetic and antiapomorphine activities compared with other compounds (pigeons [1]; pigeons, from Table 3): substantially higher than those of other compounds | ED50 (mongrel dogs [2]): 0.013 ± 0.005 mg/kg | cataleptogenic (extrapyramidic) activity [3]: free of cataleptogenic (extrapyramidic) activity | sedative activity compared with diazepame ([4]; from Table 2): much lower than the activity and toxicity of diazepame | ED50 ([4]; i/p): 2.8 ± 0.7 mg/kg | minimal effective dose (rats (conflict tests); [14]): 1 mg/kg | minimal effective dose (rats (conflict tests); [15]): 3 mg/kg | antianxiety activity relative to buspirone and said bicyclic imides (rats (conflict tests); conflict situation model): three times as large | anxiolytic doses compared with diazepame (rats (conflict tests); intraperitoneally): coincide with the similar doses of diazepame | anxiolytic activity relative to compounds VI, VII (rats (conflict tests); two anxiety models, intraperitoneally, conflict test): three times as large | LD50 (in vivo): 208 ± 20 mg/kg | ED50 (rat; ip, i/p): 7.45 ± 1.6 mg/kg | ED50 (rat; po, orally): 30.8 ± 4.14 mg/kg | antiaggressive activity relative to buspirone and bicyclic imides (rat; antiaggressive test): two to four times as large | ED50 (mice; mice, i/p): 0.7 ± 0.13 mg/kg | climbing test activity relative to buspirone and bicyclic imides (mice; climbing test): two to four times as large | apomorphine antagonism in "climbing" test compared with haloperidol (mice; mouse, in vivo): comparable to haloperidol | ED50 (pigeons [5]; [16]): 0.4 ± 0.07 mg/kg | ED50 (mongrel dogs [6]): 0.02 ± 0.006 mg/kg | toxicity compared with diazepame [7]: much lower than the activity and toxicity of diazepame | ED50 ([8]; i/p): 3.9 ± 0.9 mg/kg | myorelaxation activity compared with diazepame ([9]; from Table 2): much lower than the activity and toxicity of diazepame | ED50 ([9]; i/p): 44.5 ± 10 mg/kg | hexobarbital-potentiating activity compared with diazepame ([10]; in vivo): essentially lower than the activity of diazepame | ED50 ([10]; ip, i/p): 17.6 ± 2.9 mg/kg | ED50 ([10]; po, orally): 12.5 ± 3.14 mg/kg | minimal effective dose [11, 17]: 1 mg/kg | minimal effective dose [11, 18]: 10 mg/kg | anxiolytic activity relative to compounds VI, VII ([11]; two anxiety models, intraperitoneally, avoiding illuminated area): three times as large | dose range producing anxiolytic, antiaggressive, antiapomorphine and hexobarbital-potentiation effects [12]: 0.1-50 mg/kg of a body weight

CC12CCC(C(=O)N(CCCCN3CCN(c4ncccn4)CC3)C1=O)C2(C)C (racemic) [VII, DL-3-[4-(2-pyrimidinyl)-1-piperazinyl]-butyl]-1,8,8-trimethyl-3azabic yclo[3,2,1]octane-2,4-dione]
ED50 (pigeons [1]; [13]): 1.8 ± 0.4 mg/kg | ED50 ([4]; i/p): 5.4 ± 2.3 mg/kg | minimal effective dose (rats (conflict tests); [14]): 3 mg/kg | minimal effective dose (rats (conflict tests); [15]): 3 mg/kg | LD50 (in vivo): 211 ± 31 mg/kg | ED50 (rat; ip, i/p): 28.5 ± 4.2 mg/kg | ED50 (rat; po, orally): 81.5 ± 8.3 mg/kg | ED50 (mice; mice, i/p): 1.31 ± 0.15 mg/kg | ED50 (pigeons [5]; [16]): 4.6 ± 0.8 mg/kg | ED50 ([8]; i/p): 7.7 ± 1.6 mg/kg | ED50 ([9]; i/p): 52.5 ± 12 mg/kg | ED50 ([10]; ip, i/p): 11.9 ± 2.2 mg/kg | ED50 ([10]; po, orally): 36.5 ± 8.11 mg/kg | minimal effective dose [11, 17]: 3 mg/kg | minimal effective dose [11, 18]: 10 mg/kg

CN1C(=O)CN=C(c2ccccc2)c2cc(Cl)ccc21 [Diazepame]
ED50 [4]: 0.6 ± 0.2 mg/kg | minimal effective dose (rats (conflict tests); ip): 1 mg/kg | ED50 (rat; po): 5.9 ± 1.28 mg/kg | ED50 [8]: 0.6 ± 0.2 mg/kg | ED50 [9]: 2.4 ± 0.2 mg/kg | ED50 ([10]; ip): 0.3 ± 0.1 mg/kg | ED50 ([10]; po): 0.48 ± 0.12 mg/kg | minimal effective dose ([11]; ip): 1 mg/kg | minimal effective dose ([11]; po): 1 mg/kg

O=C(CCCN1CCC(O)(c2ccc(Cl)cc2)CC1)c1ccc(F)cc1 [Haloperidol]
ED50 (pigeons [1]): 3.4 ± 0.5 mg/kg | minimal effective dose (rats (conflict tests); ip): > 3 mg/kg | ED50 (mice): 0.67 ± 0.06 mg/kg | ED50 (pigeons [5]): 4.4 ± 0.9 mg/kg

CCN(CC)CCNC(=O)c1cc(Cl)c(N)cc1OC [Metoclopramide]
ED50 (pigeons [1]; [13]): 12 ± 1.7 mg/kg | ED50 (pigeons [5]; [16]): 9.7 ± 1.1 mg/kg

CCN1CCCC1CNC(=O)c1cc(S(N)(=O)=O)ccc1OC (centres unmarked) [Sulpyride]
ED50 (rat; ip, i/p): 60.6 ± 16.6 mg/kg | ED50 (mice; mice, i/p): 8.4 ± 1.3 mg/kg

CN1CCN(CCCN2c3ccccc3Sc3ccc(C(F)(F)F)cc32)CC1 [Trifluoperazine]
ED50 (pigeons [1]; [13]): 4.6 ± 0.8 mg/kg | ED50 (pigeons [5]; [16]): 5.5 ± 0.9 mg/kg

O=C1CC2(CCCC2)CC(=O)N1CCCCN1CCN(c2ncccn2)CC1 [VI, 8-[4-[4-(2-pyrimidinyl)-1-piperazinyl]butyl]-8-azaspiro[4,5]decane-7 ,9-dione]
ED50 ([4]; i/p): 8.7 ± 1.8 mg/kg | minimal effective dose (rats (conflict tests); [14]): 3 mg/kg | LD50 (in vivo): 140 ± 20 mg/kg | ED50 (mice; mice, i/p): 2.6 ± 0.46 mg/kg | ED50 ([8]; i/p): 7.6 ± 1.9 mg/kg | ED50 ([9]; i/p): 54.2 ± 8.1 mg/kg | ED50 ([10]; ip, i/p): 8.2 ± 2.4 mg/kg | minimal effective dose [11, 17]: 3 mg/kg
